Where two headings read alike, the source gives them in different places.
What was measured:
[1] = system: THP-1. ORF9b cells; assay type: cell-based; settings: 10 ng/mL interferon-β1 4 h, inhibitor 1 µM 1 h
[2] = physchem
[3] = molecular target: T1, Recombinant SARS-CoV-2 GST-ORF9b protein (Severe acute respiratory syndrome coronavirus 2, UniProt P0DTD2); test: Surface plasmon resonance, ORF9b-ORF9b homotypic interaction; assay type: binding; settings: mobile-phase GST-ORF9b pre-incubated with 5 µM compound
T1 construct: purchased BPS Bioscience
T1 sequence (P0DTD2 whole entry): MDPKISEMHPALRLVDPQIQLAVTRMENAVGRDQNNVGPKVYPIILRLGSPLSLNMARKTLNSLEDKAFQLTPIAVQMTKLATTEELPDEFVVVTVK

[4] = system: A549.ORF9b cells; test: Fluorescence microscopy, co-localization of ORF9b and mitochondria; assay type: cell-based
[5] = system: A549.ORF9b cells; assay type: cell-based
[6] = system: A549.ORF9b; assay type: cell-based; settings: A549.ORF9b cells; 10 ng/mL interferon-β1 4 h, inhibitor 1 µM 1 h
[7] = system: THP-1.ORF9b cells; assay type: cell-based
[8] = system: A549wt cells; assay type: cell-based; settings: both without and with LPS+ATP, MCC950 for the last 3 h
[9] = A549 lung epithelial cells, low micromolar concentrations (Fig. 9A)
[10] = THP-1 monocyte-macrophage cells, low micromolar concentrations (Fig. 9B)

Compound: Nc1ccc(F)c(NC(=O)Cc2ccccc2)c1 [Compound 1]
- restoration of IFN-β induced expression of OAS3 and ISG15 mitigated by ORF9b [1]: largely restored
- logP [2]: 2.14
- Binding of GST-ORF9b to immobilized GST-ORF9b [3]: significantly inhibited
- mitochondrial eviction of ORF9b ([4]; 2.5 µM, 4 h (Fig. 8)): causes mitochondrial eviction
- mitochondrial eviction of ORF9b ([4]; low micromolar concentrations): rapid and remarkable partial eviction
- inhibition of ORF9b-induced caspase-1 activation ([5]; A549.ORF9b cells): significantly inhibited
- inhibition of the activation of caspase-1 induced by ORF9b ([5]; A549.ORF9b cells, 5 µM, 3 h (Fig. 6)): inhibits
- restoration of IFN-β induced expression of OAS3 and ISG15 mitigated by ORF9b [6]: largely restored
- inhibition of ORF9b-induced caspase-1 activation ([7]; THP-1.ORF9b cells): significantly inhibited
- inhibition of the activation of caspase-1 induced by ORF9b ([7]; THP-1.ORF9b cells, 5 µM, 3 h (Fig. 7)): inhibits

Compound: Nc1ccc(F)c(NC(=O)c2cccc3ccccc23)c1 [Compound 2, N-(5-Amino-2-fluorophenyl)-1-naphthamide]
- restoration of IFN-β induced expression of OAS3 and ISG15 mitigated by ORF9b [1]: largely restored
- logP [2]: 3.19
- mitochondrial eviction of ORF9b ([4]; 5 µM, 4 h (Fig. 11)): induce mitochondrial eviction
- mitochondrial eviction of ORF9b ([4]; low micromolar concentrations): capable of causing mitochondrial eviction
- inhibition of ORF9b-induced caspase-1 activation ([5]; A549.ORF9b cells): inhibited
- inhibition of the activation of caspase-1 induced by ORF9b [5, 9]: inhibit
- restoration of IFN-β induced expression of OAS3 and ISG15 mitigated by ORF9b [6]: largely restored
- inhibition of ORF9b-induced caspase-1 activation ([7]; THP-1.ORF9b cells): inhibited
- inhibition of the activation of caspase-1 induced by ORF9b [7, 10]: inhibit

Compound: Cc1ccc(N)c(NC(=O)Cc2ccc(F)cc2)c1 [Compound 3, N-(2-Amino-5-methylphenyl)-2-(4-fluorophenyl)acetamide]
- logP [2]: 2.63
- mitochondrial eviction of ORF9b ([4]; low micromolar concentrations): did not cause mitochondrial eviction
- inhibition of ORF9b-induced caspase-1 activation ([5]; A549.ORF9b cells): much lower or no
- inhibition of ORF9b-induced caspase-1 activation ([7]; THP-1.ORF9b cells): much lower or no

Compound: COc1ccc(CC(=O)Nc2cc(N)ccc2F)cc1 [Compound 4, N-(5-Amino-2-fluorophenyl)-2-(4-methoxyphenyl)acetamide]
- logP [2]: 2.01
- inhibition of ORF9b-induced caspase-1 activation ([5]; A549.ORF9b cells): inhibited
- inhibition of the activation of caspase-1 induced by ORF9b [5, 9]: inhibit
- inhibition of ORF9b-induced caspase-1 activation ([7]; THP-1.ORF9b cells): inhibited
- inhibition of the activation of caspase-1 induced by ORF9b [7, 10]: inhibit

Compound: Nc1ccc(F)c(NC(=O)Cc2ccc(Cl)cc2)c1 [Compound 5, N-(5-Amino-2-fluorophenyl)-2-(4-chlorophenyl)acetamide]
- logP [2]: 2.7
- inhibition of ORF9b-induced caspase-1 activation ([5]; A549.ORF9b cells): inhibited
- inhibition of the activation of caspase-1 induced by ORF9b [5, 9]: inhibit
- inhibition of ORF9b-induced caspase-1 activation ([7]; THP-1.ORF9b cells): inhibited
- inhibition of the activation of caspase-1 induced by ORF9b [7, 10]: inhibit

Compound: O=C(Cc1ccc(Cl)cc1)Nc1cc([N+](=O)[O-])ccc1F [Compound 6, 2-(4-Chlorophenyl)-N-(2-fluoro-5-nitrophenyl)acetamide]
- restoration of IFN-β induced expression of OAS3 and ISG15 mitigated by ORF9b [1]: largely restored
- logP [2]: 3.47
- mitochondrial eviction of ORF9b ([4]; 5 µM, 4 h (Fig. 11)): induce mitochondrial eviction
- mitochondrial eviction of ORF9b ([4]; low micromolar concentrations): capable of causing mitochondrial eviction
- inhibition of ORF9b-induced caspase-1 activation ([5]; A549.ORF9b cells): inhibited
- inhibition of the activation of caspase-1 induced by ORF9b [5, 9]: inhibit
- restoration of IFN-β induced expression of OAS3 and ISG15 mitigated by ORF9b [6]: largely restored
- inhibition of ORF9b-induced caspase-1 activation ([7]; THP-1.ORF9b cells): inhibited
- inhibition of the activation of caspase-1 induced by ORF9b [7, 10]: inhibit

Compound: COc1ccc(CC(=O)Nc2cc([N+](=O)[O-])ccc2F)cc1 [Compound 7, N-(2-Fluoro-5-nitrophenyl)-2-(4-methoxyphenyl)acetamide]
- logP [2]: 2.98
- inhibition of ORF9b-induced caspase-1 activation ([5]; A549.ORF9b cells): inhibited
- inhibition of the activation of caspase-1 induced by ORF9b [5, 9]: inhibit
- inhibition of ORF9b-induced caspase-1 activation ([7]; THP-1.ORF9b cells): inhibited
- inhibition of the activation of caspase-1 induced by ORF9b [7, 10]: inhibit

Compound: Cc1ccc([N+](=O)[O-])c(NC(=O)Cc2ccc(F)cc2)c1 [Compound 8, N-(2-Nitro-5-methylphenyl)-2-(4-fluorophenyl)acetamide]
- logP [2]: 3.27
- mitochondrial eviction of ORF9b ([4]; low micromolar concentrations): did not cause mitochondrial eviction
- inhibition of ORF9b-induced caspase-1 activation ([5]; A549.ORF9b cells): much lower or no
- inhibition of ORF9b-induced caspase-1 activation ([7]; THP-1.ORF9b cells): much lower or no

Compound: O=C(Cc1ccccc1)Nc1cc([N+](=O)[O-])ccc1F [Compound 9, N-(2-Fluoro-5-nitrophenyl)-2-phenylacetamide]
- logP [2]: 2.85

Compound: CC(C)(O)c1coc(S(=O)(=O)NC(=O)Nc2c3c(cc4c2CCC4)CCC3)c1 [MCC950, reference compound]
- induction of caspase-1 activation by SARS-CoV-2 accessory proteins [8]: abolished
